From patent US20100168038A1, “USE OF COMPOUNDS IN COMBINATION WITH GAMMA-IRRADIATION FOR THE TREATMENT OF CANCER” (priority 2006, published 2010)

What was measured:
Type in all cases: cell-based, mouse
TPPII = experiment: Western blotting of TPPII expression in gamma-irradiated EL-4 cells; conditions: wortmannin treated gamma-irradiated EL-4 cells, 25 micro-M NLVS
From the text: (§1) Cells and Culture Conditions. EL-4 is a Benzpyrene-induced lymphoma cell line derived from the C57BI/6 mouse strain. EL-4.wt and EL-4.TPPII^i are EL-4 cells transfected with the pSUPER vector (Brummelkamp, T R, Bernards, R, Agami, R. A system for stable expression of short interfering RNAs in mammalian cells. Science 2002; 296:550-3), empty versus containing the siRNA directed against TPPII. HeLa cells are human cervical carcinoma cells. YAC-1 is a Moloney Leukemia Virus-induced lymphoma cell line derived from the A/Sn mouse strain. ALC is a T cell lymphoma induced by radiation leukemia virus D-RadLV, derived from the C57Bl/6 mouse strain. […]
(§2) Antibodies and Antisera. The following molecules were detected by the antibodies specified: Akt by rabbit anti-Akt serum (Cell Signaling Technology, Beverly, Mass.); Phospho-Akt (Ser 473) by 193H2 rabbit anti-phospho-Akt serum (Cell Signaling Technology, Beverly, Mass.); gamma-H2AX by rabbit anti-gamma-H2AX (Cell Signalling Technology, Beverly, Mass.); Mre11 by polyclonal rabbit anti-human Mre11 (Cell Signalling Technology, Beverly, Mass.); p21 by SX118 (R & D Systems, Minneapolis, Minn.); p53 (R & D Systems, Minneapolis, Minn.); Rae-1 by monoclonal Rat anti-mouse Rae-1, 199215 (R &D Systems, Minneapolis, Minn.); XIAP by monoclonal mouse anti-human XIAP, 117320 (R&D Systems, Minneapolis, Minn.). […]

p53 [1] = experiment: Western blotting of p53-immunoprecipitates from EL-4 cell lysates; conditions: NLVS-treated EL-4.TPPIIi cells
From the text: Antibodies and Antisera. The following molecules were detected by the antibodies specified: Akt by rabbit anti-Akt serum (Cell Signaling Technology, Beverly, Mass.); Phospho-Akt (Ser 473) by 193H2 rabbit anti-phospho-Akt serum (Cell Signaling Technology, Beverly, Mass.); gamma-H2AX by rabbit anti-gamma-H2AX (Cell Signalling Technology, Beverly, Mass.); Mre11 by polyclonal rabbit anti-human Mre11 (Cell Signalling Technology, Beverly, Mass.); p21 by SX118 (R & D Systems, Minneapolis, Minn.); p53 (R & D Systems, Minneapolis, Minn.); Rae-1 by monoclonal Rat anti-mouse Rae-1, 199215 (R &D Systems, Minneapolis, Minn.); XIAP by monoclonal mouse anti-human XIAP, 117320 (R&D Systems, Minneapolis, Minn.). For detection of TPPII we used chicken anti-TPPII serum (Immunsystem, Uppsala, Sweden). Western blotting was performed by standard techniques. Protein concentration was measured by BCA Protein Assay Reagent (Pierce Chemical Co.). 5 micro-g of protein was loaded per lane for separation by SDS/PAGE unless stated otherwise.

p53 [2] = experiment: Western blotting of p53 expression in gamma-irradiated EL-4.TPPIIi cells; conditions: gamma-irradiated EL-4.TPPIIi cells treated with NLVS
From the text: as §1, §2

CC(C)C[C@@H](/C=C/S(C)(=O)=O)NC(=O)[C@H](CC(C)C)NC(=O)[C@H](CC(C)C)NC(=O)Cc1cc(I)c(O)c([N+](=O)[O-])c1 [NLVS, 4-hydroxy-5-iodo-3-nitrophenylacetyl-Leu-Leu-Leu-vinyl sulphone]
down regulation of TPPII (TPPII): inhibited down regulation of TPPII | ATM, 53BP1 and Mre11 in p53-immunoprecipitates (p53 [1]): failed to show ATM, 53BP1 and Mre11 | p53 expression (p53 [2]): increased p53 expression
